From patent publication US20060188879A1, “Crh responsive genes in cns” (Janssen Pharmaceutica N.V., priority 2002, published 2006)
Entries after “also recorded” stand apart in the source; their conditions may differ.

Columns and labels:
Type in all cases: in vivo, mouse
[1] = system: neurotensin receptor 2 (Ntsr2); assay: Quantitative RT-PCR / microarray of Ntsr2 mRNA in brain areas of treated WT and CRF-OE mice; settings: 10 mg/kg, 2 times per day for 5 days, 16 hrs after last treatment
Procedure: (§1) Animal housing and treatment—Male transgenic CRF overexpressing C57BL/6J mice (CRF-OE or TG) and their wild-type littermates (WT) were maintained in an specific pathogen free facility that meets all national and European requirements for animal care. Mice were housed individually 4 weeks before the start of the experiment in a climate-controlled animal colony with a 12 h dark-light cycle (light on 7:00 EST) with free access to food and water. Prior to treatment 3 month old mice were randomized over three groups each comprising 4 wild-type and 4 transgenic animals. One group received no treatment, a second group received vehicle injection 5 days, 2 times per day (10% cyclodextran (CD), pH4) and a third group received 10 mg/kg of a CRH-R1 specific antagonist R121919 in 10% CD following the same regime. 16 hrs after last treatment animals were sacrificed for dissection of brain areas and subsequent isolation of RNA. […]
Microarray hybridization—cRNA was prepared as follows. […] Subsequently arrays were scanned with a HP-Laserscanner and data were analyzed with the Microarray Suite Software (Affymetrix). […] Quality of the experiment was assessed based on the percentages present calls (see table).
Quantitative RT-PCR—Microarray data were confirmed using real time PCR analysis. […] Quantitative PCR was performed on a ABIPrism 7700 cycler (Applied Biosystems) using a Taqman PCR kit. […]

[2] = system: neurotensin receptor 1 (Ntsr1); assay: Quantitative RT-PCR of Ntsr1 mRNA in brain areas of treated WT and CRF-OE mice; settings: 10 mg/kg, 2 times per day for 5 days, 16 hrs after last treatment, hippocampus
Procedure: as §1
Quantitative RT-PCR—Microarray data were confirmed using real time PCR analysis. […] Quantitative PCR was performed on a ABIPrism 7700 cycler (Applied Biosystems) using a Taqman PCR kit. […] A linear regression line calculated from the standard curves allowed the determination of transcript levels in RNA samples from the different treatment groups at each brain area.

[3] = system: gene expression profiles in brain areas of CRH overexpressing mice; assay: Microarray gene expression profiles of brain areas (spectral map analysis, SAM)
Procedure: Animal housing and treatment—Male transgenic CRF overexpressing C57BL/6J mice (CRF-OE or TG) and their wild-type littermates (WT) were maintained in an specific pathogen free facility that meets all national and European requirements for animal care. Mice were housed individually 4 weeks before the start of the experiment in a climate-controlled animal colony with a 12 h dark-light cycle (light on 7:00 EST) with free access to food and water. Prior to treatment 3 month old mice were randomized over three groups each comprising 4 wild-type and 4 transgenic animals. […]
Microarray hybridization—cRNA was prepared as follows. […] Subsequently arrays were scanned with a HP-Laserscanner and data were analyzed with the Microarray Suite Software (Affymetrix). […] Quality of the experiment was assessed based on the percentages present calls (see table). […]
Basically this alignment sets the average intensity of one array to the average measured this normalization compensates for array to array variations in hybridization, washing and staining, ultimately allowing a reasonable comparison between arrays. After normalization, data were analyzed using weighted spectral mapping analysis (SMA) (7). […]

[4] = system: all NTS-sites (Nts1-3); assay: [125I]NT binding, quantitative autoradiography on brain sections of treated mice; settings: subchronic administration
Procedure: FIG. 6: [^125I]NT binding (0.1 nM, 30 min, RT) to all NTS-sites determined via quantitative autoradiography on frozen glass-mounted brain tissue sections. Data are represented as the average IOD±SEM of three animals determined on at least three different Bregma sections each.
Animal housing and treatment—Male transgenic CRF overexpressing C57BL/6J mice (CRF-OE or TG) and their wild-type littermates (WT) were maintained in an specific pathogen free facility that meets all national and European requirements for animal care. Mice were housed individually 4 weeks before the start of the experiment in a climate-controlled animal colony with a 12 h dark-light cycle (light on 7:00 EST) with free access to food and water. Prior to treatment 3 month old mice were randomized over three groups each comprising 4 wild-type and 4 transgenic animals. One group received no treatment, a second group received vehicle injection 5 days, 2 times per day (10% cyclodextran (CD), pH4) and a third group received 10 mg/kg of a CRH-R1 specific antagonist R121919 in 10% CD following the same regime. 16 hrs after last treatment animals were sacrificed for dissection of brain areas and subsequent isolation of RNA.
Autoradiography—[^125 I]Neurotensin binding and film radiographs on brains of adult male transgenic C57BU6J mice and their wild-type littermates, was performed as described previously by Moyse et al. (12). […] Incubating additional sections in the presence of 1 μM native neurotensin assessed the non-specific staining. […] On each section structures were delineated interactively and pixel gray levels were measured in the outlined areas. The pixel gray levels were converted to radioactivity per mg of tissue using the co-exposed ^125I-standards and averaged over the measured area. Data were analyzed statistically by a two-way ANOVA and concomitant Bonferroni's Post-hoc test using SPSS 11.0 software.

**Q.** With `CCCN(CCC)c1cc(C)nc2c(-c3cnc(N(C)C)cc3C)c(C)nn12` [R121919] as the compound, how does the “Upregulation of Ntsr2 mRNA expression in vehicle treated animals (repeated injection stress)” value [1] read?
**A.** abolished; also recorded: counteracted

**Q.** And the “Upregulation of Ntsr1 mRNA expression in vehicle treated animals (repeated injection stress)” value [2]?
**A.** abolished; also recorded: counteracted

**Q.** And the “Changes in gene expression profile of CRH overexpressing (Tg) versus WT animals” value ([3]; 5 day treatment, all studied brain areas, exemplified by pituitary spectral map, listed as CRH-R1 antagonist)?
**A.** not affected (or only to a limited degree); also recorded: does not lead to a general ‘normalization’

**Q.** What about the “Effect on expression levels at the pituitary level” value ([3]; transgenic animals, pituitary) of the same compound?
**A.** some effect of the compound is measured

**Q.** What about the “Downregulation of [125I]NT binding at total NT binding level” value ([4]; CRF-OE mice) of the same compound?
**A.** counteracted the downregulation

**Q.** And the “[125I]NT binding capacity compared to vehicle treated animals” value ([4]; stratum radiatum bordering CA1-CA2 region, both WT and CRF-OE animals, p=0.057)?
**A.** upward trend

**Q.** And the “Level of [125I]NT binding in treated CRF-OE animals versus untreated animals” value ([4]; stratum radiatum, CRF-OE mice)?
**A.** equaled the level measured in untreated WT-animals; also recorded: equaled that in untreated animals
